Data published in US20240247015A1, “PHOSPHORUS DERIVATIVES AS NOVEL SOS1 INHIBITORS” (BAYER AKTIENGESELLSCHAFT, priority 2021, published 2024).

Molecular target: interaction of human SOS1 (SOS1) with human K-RasG12C (Homo sapiens (Human), UniProt Q07889)
Test: Biochemical assay: hK-RasG12C interaction assay with hSOS1 (HTRF)
Assay type: binding
Settings: GST-hK-RasG12C with His-hSOS1, 60 min incubation at 20° C., mean, read-out: K-RasG12C - SOS interaction assay IC50 (mean)
Protocol: Biochemical Assay: hK-RasG12C Interaction Assay with hSOS1 This assay quantifies the equilibrium interaction of human SOS1 (SOS1) with human K-Ras^G12^C (K-RasG12C). Detection of the interaction is achieved by measuring homogenous time-resolved fluorescence resonance energy transfer (HTRF) from antiGST-Europium (FRET donor) bound to GST-K-RasG12C to anti-6His-XL665 bound to His-tagged hSOS1 (FRET-acceptor). The assay buffer containes 5 mM HEPES pH 7.4 (Applichem), 150 mM NaCl (Sigma), […] (Promega), 1 mM DTT (Thermofisher), 0.05% BSA Fraction V, pH 7.0, (ICN Biomedicals), 0.0025% (v/v) Igepal (Sigma) and 100 mM KF (FLUKA). The expression and purification of N-terminally GST-tagged human K-RasG12C (termed GST-hK-RasG12C) and N-terminally His-tagged human SOS1 (termed His10-hSOS1) is described in WO 2019/201848, page 220 line 12-34 and page 222, line 13-25 (expression) and page 222, line 26 to page 223, line 17 (purification). Concentrations of protein batches used are optimized to be within the linear range of the HTRF signal. A Ras working solution is prepared in assay buffer containing typically 10 nM GST-hK-RasG12C and 2 nM antiGST-Eu(K) (Cisbio, France). A SOS1 working solution is prepared in assay buffer containing typically 20 nM His-hSOS1 and 10 nM anti-6His-XL665 (Cisbio, France). An inhibitor control solution is prepared in assay buffer containing nM anti-6His-XL665 without SOS1. Fifty nl of a 100-fold concentrated solution of the test compound in DMSO are transferred into a black microtiter test plate (384 or 1536, Greiner Bio-One, Germany). For this, either a Hummingbird liquid handler (Digilab, MA, USA) or an Echo acoustic system (Labcyte, CA, USA) is used. All steps of the assay are performed at 20° C. A volume of 2.5 μl of the Ras working solution is added to all wells of the test plate using a Multidrop dispenser (Thermo Labsystems). After 2 min preincubation, 2.5 μl of the SOS1 working solution are added to all wells except for those wells at the side of the test plate that are subsequently filled with 2.5 μl of the inhibitor control solution. After 60 min incubation the fluorescence is measured with a Pherastar (BMG, Germany) using the HTRF module (excitation 337 nm, emission 1: 620 nm, emission 2: 665 nm). The ratiometric data (emission 2 divided by emission 1) are normalized using the controls (DMSO=0% inhibition, inhibition control wells with inhibitor control solution=100% inhibition). Compounds are tested in duplicates at up to 11 concentrations (for 20 μM, 5,7 μM, 1,6 μM, 0.47 μM, 0.13 μM, 38 nM, 11 nM, 3.1 nM, 0.89 nM, 0.25 nM and 0.073 nM). IC50 values are calculated by 4-Parameter fitting using a commercial software package (Genedata Screener, Switzerland).

Chain of interaction of human SOS1 (SOS1) with human K-RasG12C (Q07889 564-1049 limits assumed): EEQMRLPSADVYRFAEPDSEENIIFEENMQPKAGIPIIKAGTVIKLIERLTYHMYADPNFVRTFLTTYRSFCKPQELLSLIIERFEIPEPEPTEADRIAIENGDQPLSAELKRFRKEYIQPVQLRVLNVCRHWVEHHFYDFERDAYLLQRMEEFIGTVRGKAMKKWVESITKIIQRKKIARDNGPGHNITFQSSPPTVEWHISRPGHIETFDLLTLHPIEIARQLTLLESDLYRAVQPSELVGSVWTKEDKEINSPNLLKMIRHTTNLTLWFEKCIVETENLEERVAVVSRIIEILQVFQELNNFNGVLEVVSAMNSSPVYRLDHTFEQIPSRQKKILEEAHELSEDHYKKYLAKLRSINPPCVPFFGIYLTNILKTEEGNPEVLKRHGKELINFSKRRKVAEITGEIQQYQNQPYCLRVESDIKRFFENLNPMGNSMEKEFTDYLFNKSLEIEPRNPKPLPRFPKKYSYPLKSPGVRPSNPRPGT

Compound	IC50 [nM]
Cc1nc(N[C@H](C)c2cccc(C(F)(F)C(C)O)c2F)c2cc(P(C)(=O)C(C)C)ncc2n1 (single isomer, unassigned) [Example 83, (2R*)-1,1-difluoro-1-{2-fluoro-3-[(1R)-1-({2-methyl-6-[methyl(propan-2-yl)phosphoryl]pyrido[3,4-d]pyrimidin-4-yl}amino)ethyl]phenyl}propan-2-ol]	31
Cc1nc(N[C@H](C)c2cccc(C(F)(F)C(C)O)c2F)c2cc(P(C)(=O)C(C)C)ncc2n1 (single isomer, unassigned) [Example 84, (2R*)-1,1-difluoro-1-{2-fluoro-3-[(1R)-1-({2-methyl-6-[methyl(propan-2-yl)phosphoryl]pyrido[3,4-d]pyrimidin-4-yl}amino)ethyl]phenyl}propan-2-ol]	24.1
CCC(O)C(F)(F)c1cccc([C@@H](C)Nc2nc(C)nc3cnc(P(C)(C)=O)cc23)c1F (single isomer, unassigned) [Example 89, (2R*)-1-{3-[(1R)-1-{[6-(dimethylphosphoryl)-2-methylpyrido[3,4-d]pyrimidin-4-yl]amino}ethyl]-2-fluorophenyl}-1,1-difluorobutan-2-ol]	6.06
Cc1nc(N[C@H](C)c2cccc(C(F)(F)C(C)O)c2F)c2cc(P3(=O)CCCC3)ncc2n1 (single isomer, unassigned) [Example 112, 1-(4-{[(1R)-1-{3-[(2R*)-1,1-difluoro-2-hydroxypropyl]-2-fluorophenyl}ethyl]amino}-2-methylpyrido[3,4-d]pyrimidin-6-yl)-1lambda^5-phospholan-1-one]	11.2
Cc1nc(N[C@H](C)c2cccc(C(F)F)c2F)c2cc(P(C)(=O)C(C)C)ncc2n1 (single isomer, unassigned) [Example 116]	57.6
CCP(C)(=O)c1cc2c(N[C@H](C)c3cccc(C(F)F)c3F)nc(C)nc2cn1 (single isomer, unassigned) [Example 118]	56.5
CCP(C)(=O)c1cc2c(N[C@H](C)c3cccc(C(F)F)c3F)nc(C)nc2cn1 (single isomer, unassigned) [Example 119]	42.9
CCP(C)(=O)c1cc2c(N[C@H](C)c3cccc(C(F)(F)CO)c3F)nc(C)nc2cn1 (single isomer, unassigned) [Example 132]	11.7
Cc1nc(N[C@H](C)c2cccc(C(F)(F)CO)c2F)c2cc(P(C)(=O)C(C)C)ncc2n1 (single isomer, unassigned) [Example 135]	17
Cc1nc(N[C@H](C)c2cccc(C(F)(F)C(O)C(C)(C)C)c2F)c2cc(P(C)(C)=O)ncc2n1 (stereo in doubt) [Example 136, (2R*)-1-{3-[(1R)-1-{[6-(dimethylphosphoryl)-2-methylpyrido[3,4-d]pyrimidin-4-yl]amino}ethyl]-2-fluorophenyl}-1,1-difluoro-3,3-dimethylbutan-2-ol]	38.9
Cc1nc(N[C@H](C)c2cccc(C(F)(F)F)c2C)c2cc(P(C)(C)=O)ncc2n1 [Example 1, 6-(dimethylphosphoryl)-2-methyl-N-{(1R)-1-[2-methyl-3-(trifluoromethyl)phenyl]ethyl}pyrido[3,4-d]pyrimidin-4-amine]	20.6
Cc1nc(N[C@H](C)c2cccc(C(F)(F)F)c2C)c2cc(P3(=O)CCN(Cc4ccccc4)CC3)ncc2n1 [Example 5, 1-benzyl-4-[2-methyl-4-({(1R)-1-[2-methyl-3-(trifluoromethyl)phenyl]ethyl}amino)pyrido[3,4-d]pyrimidin-6-yl]-1,4lambda^5-azaphosphinan-4-one]	261
Cc1nc(N[C@H](C)c2cccc(C(F)F)c2F)c2cc(P3(=O)CCN(Cc4ccccc4)CC3)ncc2n1 [Example 8, 1-benzyl-4-[4-({(1R)-1-[3-(difluoromethyl)-2-fluorophenyl]ethyl}amino)-2-methylpyrido[3,4-d]pyrimidin-6-yl]-1,4lambda^5-azaphosphinan-4-one]	94

Continued, values first:

IC50 [nM]	Compound
24.5	Cc1nc(N[C@H](C)c2cccc(C(F)(F)C(C)O)c2F)c2cc(P(C)(=O)C(C)C)ncc2n1 (single isomer, unassigned) [Example 82, (2R*)-1,1-difluoro-1-{2-fluoro-3-[(1R)-1-({2-methyl-6-[methyl(propan-2-yl)phosphoryl]pyrido[3,4-d]pyrimidin-4-yl}amino)ethyl]phenyl}propan-2-ol]
2.86	Cc1nc(N[C@H](C)c2cccc(C(F)(F)C(O)C(C)C)c2F)c2cc(P(C)(C)=O)ncc2n1 (single isomer, unassigned) [Example 87, (2R*)-1-{3-[(1R)-1-{[6-(dimethylphosphoryl)-2-methylpyrido[3,4-d]pyrimidin-4-yl]amino}ethyl]-2-fluorophenyl}-1,1-difluoro-3-methylbutan-2-ol]
21.5	Cc1nc(N[C@H](C)c2cccc(C(F)(F)C(C)O)c2F)c2cc(P3(=O)CCCC3)ncc2n1 (single isomer, unassigned) [Example 111, 1-(4-{[(1R)-1-{3-[(2R*)-1,1-difluoro-2-hydroxypropyl]-2-fluorophenyl}ethyl]amino}-2-methylpyrido[3,4-d]pyrimidin-6-yl)-1lambda^5-phospholan-1-one]
80.3	Cc1nc(N[C@H](C)c2cccc(C(F)F)c2F)c2cc(P(C)(=O)C(C)C)ncc2n1 (single isomer, unassigned) [Example 115]
11.5	CCP(C)(=O)c1cc2c(N[C@H](C)c3cccc(C(F)(F)CO)c3F)nc(C)nc2cn1 (single isomer, unassigned) [Example 131]
25.2	Cc1nc(N[C@H](C)c2cccc(C(F)(F)CO)c2F)c2cc(P(C)(=O)C(C)C)ncc2n1 (single isomer, unassigned) [Example 134]
36.6	Cc1nc(N[C@H](C)c2cccc(C(F)(F)C(C)O)c2F)c2cc(P(C)(C)=O)ncc2n1 (stereo in doubt) [Example 86, (2R*)-1-{3-[(1R)-1-{[6-(dimethylphosphoryl)-2-methylpyrido[3,4-d]pyrimidin-4-yl]amino}ethyl]-2-fluorophenyl}-1,1-difluoropropan-2-ol]
26.6	CCP(=O)(CC)c1cc2c(N[C@H](C)c3cccc(C(F)(F)C(C)O)c3F)nc(C)nc2cn1 (stereo in doubt) [Example 90, (2R*)-1-{3-[(1R)-1-{[6-(diethylphosphoryl)-2-methylpyrido[3,4-d]pyrimidin-4-yl]amino}ethyl]-2-fluorophenyl}-1,1-difluoropropan-2-ol]
50.8	Cc1nc(N[C@H](C)c2cccc(C(F)F)c2F)c2cc(P(C)(C)=O)ncc2n1 [Example 2, N-{(1R)-1-[3-(difluoromethyl)-2-fluorophenyl]ethyl}-6-(dimethylphosphoryl)-2-methylpyrido[3,4-d]pyrimidin-4-amine]
19.1	Cc1nc(N[C@H](C)c2cccc(C(F)(F)C(C)(C)O)c2F)c2cc(P(C)(C)=O)ncc2n1 [Example 3, 1-{3-[(1R)-1-{[6-(dimethylphosphoryl)-2-methylpyrido[3,4-d]pyrimidin-4-yl]amino}ethyl]-2-fluorophenyl}-1,1-difluoro-2-methylpropan-2-ol]
12.8	Cc1nc(N[C@H](C)c2cccc(C(F)(F)C(C)(C)O)c2F)c2cc(P3(=O)CCCC3)ncc2n1 [Example 4, 1-[4-({(1R)-1-[3-(1,1-difluoro-2-hydroxy-2-methylpropyl)-2-fluorophenyl]ethyl}amino)-2-methylpyrido[3,4-d]pyrimidin-6-yl]-1lambda^5-phospholan-1-one]
6.24	CC(=O)N1CCP(=O)(c2cc3c(N[C@H](C)c4cccc(C(F)(F)F)c4C)nc(C)nc3cn2)CC1 [Example 7, 1-acetyl-4-[2-methyl-4-({(1R)-1-[2-methyl-3-(trifluoromethyl)phenyl]ethyl}amino)pyrido[3,4-d]pyrimidin-6-yl]-1,4lambda^5-azaphosphinan-4-one]
22.3	Cc1nc(N[C@H](C)c2cccc(C(F)F)c2F)c2cc(P3(=O)CCNCC3)ncc2n1 [Example 9, 4-[4-({(1R)-1-[3-(difluoromethyl)-2-fluorophenyl]ethyl}amino)-2-methylpyrido[3,4-d]pyrimidin-6-yl]-1,4lambda^5-azaphosphinan-4-one]
